Tests used:
[1] = tested on: Monographella nivalis (Microdochium nivale); assay: Monographella nivalis (Microdochium nivale) / liquid culture (foot rot cereals); format: cell-based; settings: PDB potato dextrose broth, 24° C., 4-5 days after application, compared to untreated checks, read-out: disease control (inhibition of growth, photometric)
Description: Monographella nivalis (Microdochium nivale)/Liquid Culture (Foot Rot Cereals) Conidia of the fungus from cryogenic storage are directly mixed into nutrient broth (PDB potato dextrose broth). After placing a (DMSO) solution of test compound into a microtiter plate (96-well format), the nutrient broth containing the fungal spores is added. The test plates are incubated at 24° C. and the inhibition of growth is determined photometrically 4-5 days after application.

[2] = tested on: Mycosphaerella Graminicola (Septoria tritici); assay: Mycosphaerella graminicola (Septoria tritici) / liquid culture (Septoria blotch); format: cell-based; settings: Zymoseptoria tritici, PDB potato dextrose broth, 24° C., 4 to 5 days after application, compared to untreated checks, read-out: disease control (inhibition of growth, photometric)
Description: Mycosphaerella Graminicola (Septoria tritici)/Liquid Culture (Septoria Blotch) Conidia of the fungus from cryogenic storage are directly mixed into nutrient broth (PDB potato dextrose broth). After placing a (DMSO) solution of test compound into a microtiter plate (96-well format), the nutrient broth containing the fungal spores is added. The test plates are incubated at 24° C. and the inhibition of growth is determined photometrically 4 to 5 days after application.

[3] = tested on: Mycosphaerella arachidis (Cercospora arachidicola); assay: Mycosphaerella arachidis (Cercospora arachidicola) / liquid culture (early leaf spot); format: cell-based; settings: PDB potato dextrose broth, 24° C., 4-5 days after application, compared to untreated checks, read-out: disease control (inhibition of growth, photometric)
Description: Mycosphaerella arachidis (Cercospora arachidicola)/Liquid Culture (Early Leaf Spot) Conidia of the fungus from cryogenic storage are directly mixed into nutrient broth (PDB potato dextrose broth). After placing a (DMSO) solution of test compound into a microtiter plate (96-well format), the nutrient broth containing the fungal spores is added. The test plates are incubated at 24° C. and the inhibition of growth is determined photometrically 4-5 days after application.

[4] = tested on: Puccinia Recondite f. Sp. Tritici; assay: Puccinia recondita f. sp. tritici / wheat / leaf disc preventative (brown rust); format: in vivo; settings: foliar, wheat leaf segments cv. Kanzler, inoculated 1 day after application, assessed 7-9 days after application, compared to untreated, read-out: disease control
Description: Puccinia Recondite f. Sp. Tritici/Wheat/Leaf Disc Preventative (Brown Rust) Wheat leaf segments cv. Kanzler are placed on agar in multiwell plates (24-well format) and sprayed with the formulated test compound diluted in water. The leaf disks are inoculated with a spore suspension of the fungus 1 day after application. The inoculated leaf segments are incubated at 19° C. and 75% rh under a light regime of 12 h light/12 h darkness in a climate cabinet and the activity of a compound is assessed as percent disease control compared to untreated when an appropriate level of disease damage appears in untreated check leaf segments (7-9 days after application).

[5] = tested on: Phaeosphaeria nodorum (Septoria nodorum); assay: Phaeosphaeria nodorum (Septoria nodorum) / wheat / leaf disc preventative (glume blotch); format: in vivo; settings: Parastagonospora nodorum, foliar, 120 h, wheat leaf segments cv. Kanzler, inoculated 2 days after application, assessed 5-7 days after application, compared to untreated, read-out: disease control
Description: Phaeosphaeria nodorum (Septoria nodorum)/Wheat/Leaf Disc Preventative (Glume Blotch) Wheat leaf segments cv. Kanzler are placed on agar in a multiwell plate (24-well format) and sprayed with the formulated test compound diluted in water. The leaf disks are inoculated with a spore suspension of the fungus 2 days after application. The inoculated test leaf disks are incubated at 20° C. and 75% rh under a light regime of 12 h light/12 h darkness in a climate cabinet and the activity of a compound is assessed as percent disease control compared to untreated when an appropriate level of disease damage appears in untreated check leaf disks (5-7 days after application).

[6] = tested on: Glomerella Lagenarium (Colletotrichum lagenarium); assay: Glomerella lagenarium (Colletotrichum lagenarium) / liquid culture (anthracnose); format: cell-based; settings: Colletotrichum orbiculare, PDB potato dextrose broth, 24° C., 3 to 4 days after application, compared to untreated checks, read-out: disease control (inhibition of growth, photometric)
Description: Glomerella Lagenarium (Colletotrichum lagenarium)/Liquid Culture (Anthracnose) Conidia of the fungus from cryogenic storage are directly mixed into nutrient broth (PDB potato dextrose broth). After placing a (DMSO) solution of test compound into a microtiter plate (96-well format), the nutrient broth containing the fungal spores is added. The test plates are incubated at 24° C. and the inhibition of growth is measured photometrically 3 to 4 days after application.

[7] = tested on: Magnaporthe grisea (Pyricularia oryzae); assay: whole plant or invertebrate; format: in vivo; settings: foliar, read-out: disease control

COc1ccnc(C(=O)N[C@@H](C)C(=O)ON(C)C(c2ccc(C(C)(C)C)cc2)c2ccc(C(C)(C)C)cc2)c1O [I.aa.01, [bis(4-tert-butylphenyl)methyl-methyl-amino] (2S)-2-[(3-hydroxy-4-methoxy-pyridine-2-carbonyl)amino]propanoate]
≥ 80%: inhibition at 200 ppm [1] | inhibition at 200 ppm [2]

COc1ccnc(C(=O)N[C@@H](C)C(=O)ON(C)C(c2ccccc2)C(C)C)c1O (stereo partly drawn) [I.d.01, [methyl-(2-methyl-1-phenyl-propyl)amino] (2S)-2-[(3-hydroxy-4-methoxy-pyridine-2-carbonyl)amino] propanoate]
≥ 80%: inhibition at 200 ppm [3] | inhibition at 200 ppm [2] | pest or weed control at 200 ppm [4]

COc1ccnc(C(=O)N[C@@H](C)C(=O)ON(C)C(c2ccccc2)C2CC2)c1O (stereo partly drawn) [I.e.01, [[cyclopropyl(phenyl)methyl]-methyl-amino] (2S)-2-[(3-hydroxy-4-methoxy-pyridine-2-carbonyl)amino] propanoate]
≥ 80%: inhibition at 200 ppm [2] | pest or weed control at 200 ppm [5]

COc1ccnc(C(=O)N[C@@H](C)C(=O)ON(C)C(c2ccc3ccccc3c2)C2CC2)c1O (stereo partly drawn) [I.g.01, [[cyclopropyl(2-naphthyl)methyl]-methyl-amino] (2S)-2-[(3-hydroxy-4-methoxy-pyridine-2-carbonyl)amino] propanoate]
≥ 80%: pest or weed control at 200 ppm [5]

COc1ccnc(C(=O)N[C@@H](C)C(=O)ON(C)C(c2ccccc2)C2CCCC2)c1O (stereo partly drawn) [I.h.01, [[cyclopentyl(phenyl)methyl]-methyl-amino] (2S)-2-[(3-hydroxy-4-methoxy-pyridine-2-carbonyl)amino] propanoate]
≥ 80%: inhibition at 200 ppm [6] | pest or weed control at 200 ppm [7] | inhibition at 200 ppm [3] | inhibition at 200 ppm [2] | pest or weed control at 200 ppm [5] | pest or weed control at 200 ppm [4]

COc1ccnc(C(=O)N[C@@H](C)C(=O)ON(C)C(c2ccccc2)C2CCCCC2)c1O (stereo partly drawn) [I.j.01, [[cyclohexyl(phenyl)methyl]-methyl-amino] (2S)-2-[(3-hydroxy-4-methoxy-pyridine-2-carbonyl)amino] propanoate]
≥ 80%: pest or weed control at 200 ppm [5]

COc1ccnc(C(=O)N[C@@H](C)C(=O)ON(C)C(C)(c2ccccc2)c2ccccc2)c1O [I.m.02, [1,1-diphenylethyl (methyl)amino] (2S)-2-[(3-hydroxy-4-methoxy-pyridine-2-carbonyl)amino] propanoate]
≥ 80%: pest or weed control at 200 ppm [7] | inhibition at 200 ppm [3] | inhibition at 200 ppm [2] | pest or weed control at 200 ppm [5] | pest or weed control at 200 ppm [4]

COc1ccnc(C(=O)N[C@@H](C)C(=O)ON(C)C(c2ccccc2)c2ccc(F)cc2)c1O (stereo partly drawn) [I.n.01, [[(4-fluorophenyl)-phenyl-methyl]-methyl-amino] (2S)-2-[(3-hydroxy-4-methoxy-pyridine-2-carbonyl)amino]propanoate]
≥ 80%: inhibition at 200 ppm [6] | pest or weed control at 200 ppm [7] | inhibition at 200 ppm [1] | inhibition at 200 ppm [3] | inhibition at 200 ppm [2] | pest or weed control at 200 ppm [5] | pest or weed control at 200 ppm [4]

COc1ccnc(C(=O)N[C@@H](C)C(=O)ON(C)C(c2ccccc2)c2ccc(Cl)cc2)c1O (stereo partly drawn) [I.o.01, [[(4-chlorophenyl)-phenyl-methyl]-methyl-amino] (2S)-2-[(3-hydroxy-4-methoxy-pyridine-2-carbonyl)amino]propanoate]
≥ 80%: inhibition at 200 ppm [6] | inhibition at 200 ppm [3] | inhibition at 200 ppm [2] | pest or weed control at 200 ppm [5] | pest or weed control at 200 ppm [4]

COc1ccnc(C(=O)N[C@@H](C)C(=O)ON(C)C(c2ccccc2)c2ccc3ccccc3c2)c1O (stereo partly drawn) [I.r.01, [methyl-[2-naphthyl(phenyl)methyl]amino] (2S)-2-[(3-hydroxy-4-methoxy-pyridine-2-carbonyl)amino] propanoate]
≥ 80%: pest or weed control at 200 ppm [5]

COc1ccnc(C(=O)N[C@@H](C)C(=O)ON(C)C(c2ccc(F)cc2)c2ccc(F)cc2)c1OC(C)=O [I.s.13, [bis(4-fluorophenyl)methyl-methyl-amino] (2S)-2-[(3-acetoxy-4-methoxy-pyridine-2-carbonyl)amino]propanoate]
≥ 80%: inhibition at 200 ppm [3] | inhibition at 200 ppm [2] | pest or weed control at 200 ppm [5] | pest or weed control at 200 ppm [4]

COc1ccnc(C(=O)N[C@@H](C)C(=O)ON(C)C(C)(c2ccc(F)cc2)c2ccc(F)cc2)c1OC(C)=O [I.s.14, [1,1-bis(4-fluorophenyl)ethyl-methyl-amino] (2S)-2-[(3-acetoxy-4-methoxy-pyridine-2-carbonyl)amino] propanoate]
≥ 80%: pest or weed control at 200 ppm [7] | inhibition at 200 ppm [3] | inhibition at 200 ppm [2] | pest or weed control at 200 ppm [5]

COc1ccnc(C(=O)N[C@@H](C)C(=O)ON(C)C(C)(c2ccc(F)cc2)c2ccc(Cl)cc2)c1O (stereo partly drawn) [I.t.02, [[1-(4-chlorophenyl)-1-(4-fluorophenyl)ethyl]-methyl-amino] (2S)-2-[(3-hydroxy-4-methoxy-pyridine-2-carbonyl)amino]propanoate]
≥ 80%: inhibition at 200 ppm [6] | inhibition at 200 ppm [1] | inhibition at 200 ppm [3] | inhibition at 200 ppm [2] | pest or weed control at 200 ppm [4]

COc1ccnc(C(=O)N[C@@H](C)C(=O)ON(C)C(c2ccc(Cl)cc2)c2ccc(Cl)cc2)c1O [I.u.01, [bis(4-chlorophenyl)methyl-methyl-amino] (2S)-2-[(3-hydroxy-4-methoxy-pyridine-2-carbonyl)amino] propanoate]
≥ 80%: inhibition at 200 ppm [6] | pest or weed control at 200 ppm [7] | inhibition at 200 ppm [3] | inhibition at 200 ppm [2] | pest or weed control at 200 ppm [5] | pest or weed control at 200 ppm [4]

CCC(c1ccc(Cl)cc1)(c1ccc(Cl)cc1)N(C)OC(=O)[C@H](C)NC(=O)c1nccc(OC)c1O [I.u.03, [1,1-bis(4-chlorophenyl)propyl-methyl-amino] (2S)-2-[(3-hydroxy-4-methoxy-pyridine-2-carbonyl)amino]propanoate]
≥ 80%: inhibition at 200 ppm [1] | inhibition at 200 ppm [3] | inhibition at 200 ppm [2]

COc1ccnc(C(=O)N[C@@H](C)C(=O)ON(C)C(c2cc(C)cc(C)c2)c2cc(C)cc(C)c2)c1O [I.x.01, [bis(3,5-dimethylphenyl)methyl-methyl-amino] (2S)-2-[(3-hydroxy-4-methoxy-pyridine-2-carbonyl)amino]propanoate]
≥ 80%: inhibition at 200 ppm [6] | inhibition at 200 ppm [1] | inhibition at 200 ppm [2]

— patent US11535594B2, “Microbiocidal picolinamide derivatives” (Syngenta Participations AG, priority 2017, dated 2022)
